According to patent US20140057915A1, “KINASE INHIBITORS” (TOPIVERT PHARMA LIMITED, priority 2012, published 2014):

Experiments:
Syk = Syk (Homo sapiens, UniProt P43405); test: Syk enzyme inhibition (FRET); format: biochemical; settings: Table 4a1
Method: (§1) The enzyme inhibitory activities of compounds disclosed herein are determined by FRET using synthetic peptides labelled with both donor and acceptor fluorophores (Z-LYTE, Invitrogen Ltd., Paisley, UK).
(§2) The relevant enzyme (3000 ng/mL or 2000 ng/mL respectively, 2.5 μL) is incubated with the test compound (either 4 μg/mL, 0.4 μg/mL, 0.04 μg/mL, or 0.004 μg/mL, 2.5 μL each) for 2 hr at RT. The FRET peptides (8 μM, 2.5 μL), and appropriate ATP solutions (2.5 μL, 800 μM for c-Src, and 60 μM ATP for Syk) are then added to the enzymes/compound mixtures and incubated for 1 hr. Development reagent (protease, 5 μL) is added for 1 hr prior to detection in a fluorescence microplate reader (Varioskan® Flash, ThermoFisher Scientific).
(§3) In all cases, the site-specific protease cleaves non-phosphorylated peptide only and eliminates the FRET signal. Phosphorylation levels of each reaction are calculated using the ratio of coumarin emission (donor) over fluorescein emission (acceptor), for which high ratios indicate high phosphorylation and low ratios indicate low phosphorylation levels.

[1] = test system: ICAM-1 expression, BEAS2B cells; test: Poly I:C-induced ICAM-1 expression in BEAS2B cells; format: cell-based; settings: Homo sapiens, BEAS-2B; read-out: Poly IC induced ICAM1 in BEAS2B, IC50
Method: (f) Poly I:C-Induced ICAM-1 Expression in BEAS2B Cells
Poly I:C is used in these studies as a simple, RNA virus mimic. Poly I:C-Oligofectamine mixture (1 μg/mL Poly I:C, ±2% Oligofectamine, 25 μL; Invivogen Ltd., San Diego, Calif., and Invitrogen, Carlsbad, Calif., respectively) is transfected into BEAS2B cells (human bronchial epithelial cells, ATCC). Cells are pre-incubated with final concentrations of test compounds for 2 hr and the level of ICAM1 expression on the cell surface is determined by cell-based ELISA. At a time point 18 hr after poly I:C transfection, cells are fixed with 4% formaldehyde in PBS (100 μL) and then endogenous peroxidase is quenched by the addition of washing buffer (100 μL, 0.05% Tween in PBS: PBS-Tween) containing 0.1% sodium azide and 1% hydrogen peroxide. Cells are washed with wash-buffer (3×200 μL). and after blocking the wells with 5% milk in PBS-Tween (100 μL) for 1 hr, the cells are incubated with anti-human ICAM-1 antibody (50 μL; Cell Signalling Technology, Danvers, Mass.) in 1% BSA PBS overnight at 4° C.
The cells are washed with PBS-Tween (3×200 μL) and incubated with the secondary antibody (100 μL; HRP-conjugated anti-rabbit IgG, Dako Ltd., Glostrup, Denmark). […] The ICAM-1 signal is detected by reading the absorbance at 450 nm against a reference wavelength of 655 nm using a spectrophotometer. The cells are then washed with PBS-Tween (3×200 μL) and total cell numbers in each well are determined by reading absorbance at 595 nm after Crystal Violet staining (50 μL of a 2% solution in PBS) and elution by 1% SDS solution (100 μL) in distilled water. The measured OD 450-655 readings are corrected for cell number by dividing with the OD595 reading in each well. The inhibition of ICAM-1 expression is calculated at each concentration of test compound by comparison with vehicle control.

GSK3α = GSK3α (Homo sapiens, UniProt P49840); test: GSK 3α enzyme inhibition (FRET), Method 1; format: biochemical; settings: Table 4a1
Method: as §1
The following two assay variants are used for determination of GSK 3a inhibition.
The inhibitory activities of compounds of the invention against the GSK 3a enzyme isoform (Invitrogen), are evaluated by determining the level of activation/phosphorylation of the target peptide. The GSK3-α protein (500 ng/mL, 2.5 μL) is mixed with the test compound (2.5 μL at either 4 μg/mL, 0.4 μg/mL, 0.04 μg/mL, or 0.004 μg/mL) for 2 hr at RT. The FRET peptide (8 μM, 2.5 μL), which is a phosphorylation target for GSK3α, and ATP (40 μM, 2.5 μL) are then added to the enzyme/compound mixture and the resulting mixture incubated for 1 hr. Development reagent (protease, 5 μL) is added for 1 hr prior to detection in a fluorescence microplate reader (Varioskan® Flash, ThermoFisher Scientific).
as §3

[2] = test system: IL-8 release, d-U937 cells; test: LPS-induced IL-8 release in d-U937 cells; format: cell-based; settings: Homo sapiens, dU937; Table 4c1; read-out: LPS Induced Release of Cytokine in d-U937 Cells, IL-8 IC50
Method: (§4) (a) LPS-Induced TNFα/IL-8 Release in d-U937Cells
U937 cells, a human monocytic cell line, are differentiated into macrophage-type cells by incubation with PMA (100 ng/mL) for 48 to 72 hr. Cells are pre-incubated with final concentrations of test compound for 2 hr and are then stimulated with LPS (0.1 μg/mL; from E. Coli: 0111:B4, Sigma) for 4 hr. […] The relative 50% effective concentration (REC50) is determined from the resultant concentration-response curve.

cSrc = cSrc (Homo sapiens, UniProt P12931); test: c-Src enzyme inhibition (FRET); format: biochemical; settings: Table 4a1
Method: as §1, §2, §3

d-U937 cells = test: Cell viability: MTT assay; format: cell-based, human; settings: 1 μg/mL
Method: (l) The Effect of Test Compounds on Cell Viability: MTT Assay
Differentiated U937 cells are pre-incubated with each test compound (final concentration 1 μg/mL or 10 μg/mL in 200 μL media indicated below) under two protocols: the first for 4 hr in 5% FCS RPMI1640 media and the second in 10% FCS RPMI1640 media for 24 h. The supernatant is replaced with new media (200 μL) and MTT stock solution (10 μL, 5 mg/mL) is added to each well. After incubation for 1 hr the media are removed, DMSO (200 μL) is added to each well and the plates are shaken lightly for 1 hr prior to reading the absorbance at 550 nm. The percentage loss of cell viability is calculated for each well relative to vehicle (0.5% DMSO) treatment. Consequently an apparent increase in cell viability for drug treatment relative to vehicle is tabulated as a negative percentage.

[3] = test system: TNFα release, d-U937 cells; test: LPS-induced TNFα release in d-U937 cells; format: cell-based; settings: Homo sapiens, dU937; relative to 10 μg/mL BIRB796; Table 4c1; read-out: LPS Induced Release of Cytokine in d-U937 Cells, TNFα REC50
Method: as §4
U937 cells, a human monocytic cell line, are differentiated into macrophage-type cells by incubation with PMA (100 ng/mL) for 48 to 72 hr. Cells are pre-incubated with final concentrations of test compound for 2 hr and are then stimulated with LPS (0.1 μg/mL; from E. Coli: 0111:B4, Sigma) for 4 hr. The supernatant is collected for determination of TNFα and IL-8 concentrations by sandwich ELISA (Duo-set, R&D systems). […] The relative 50% effective concentration (REC50) is determined from the resultant concentration-response curve. The inhibition of IL-8 production is calculated at each concentration of test compound by comparison with vehicle control.

Sequence of cSrc (P12931 whole entry): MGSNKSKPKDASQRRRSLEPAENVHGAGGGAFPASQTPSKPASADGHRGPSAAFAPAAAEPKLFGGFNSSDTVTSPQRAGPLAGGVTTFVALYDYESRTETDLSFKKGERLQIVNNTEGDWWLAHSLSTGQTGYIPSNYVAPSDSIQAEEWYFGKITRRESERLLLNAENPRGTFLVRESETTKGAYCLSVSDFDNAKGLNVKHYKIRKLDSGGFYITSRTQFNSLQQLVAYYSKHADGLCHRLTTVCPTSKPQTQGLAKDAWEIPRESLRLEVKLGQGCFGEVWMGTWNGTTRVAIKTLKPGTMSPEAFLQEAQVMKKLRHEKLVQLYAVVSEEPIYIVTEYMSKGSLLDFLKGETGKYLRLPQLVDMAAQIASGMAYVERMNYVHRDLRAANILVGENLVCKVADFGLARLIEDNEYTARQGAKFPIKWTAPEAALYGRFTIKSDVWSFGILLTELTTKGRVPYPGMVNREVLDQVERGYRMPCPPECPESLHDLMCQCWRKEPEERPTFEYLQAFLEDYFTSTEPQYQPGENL
Sequence of GSK3α (P49840 whole entry): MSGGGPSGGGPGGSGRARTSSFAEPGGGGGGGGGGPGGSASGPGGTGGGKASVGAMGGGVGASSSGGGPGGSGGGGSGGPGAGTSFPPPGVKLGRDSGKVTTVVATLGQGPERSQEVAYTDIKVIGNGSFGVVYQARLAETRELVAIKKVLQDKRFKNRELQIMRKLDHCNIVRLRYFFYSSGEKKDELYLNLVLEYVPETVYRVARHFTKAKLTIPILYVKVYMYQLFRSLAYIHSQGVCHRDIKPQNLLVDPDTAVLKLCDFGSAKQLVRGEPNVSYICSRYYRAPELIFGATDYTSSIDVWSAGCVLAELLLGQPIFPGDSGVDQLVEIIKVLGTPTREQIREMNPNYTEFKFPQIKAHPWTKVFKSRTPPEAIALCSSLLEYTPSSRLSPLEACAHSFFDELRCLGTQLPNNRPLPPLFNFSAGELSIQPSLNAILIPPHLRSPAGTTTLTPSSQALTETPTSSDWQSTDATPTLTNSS

Row | IC50 (Syk) [nM] | IC50 (GSK3α) [nM] | IC50 [2] [nM] | IC50 (cSrc) [nM] | EC50 [3] [nM] | SMILES | IC50 [1] [nM] | Cell viability at time point in d-U937 cells, 4 h (d-U937 cells) | Cell viability at time point in d-U937 cells, 24 h (d-U937 cells)
1 | 30 | > 14000 | 3.2 | < 1 | 27.8 | COc1cc(C(=O)NCCN(C)C)ccc1Nc1nccc(Oc2ccc(NC(=O)Nc3cc(C(C)C)nn3-c3ccc(C)cc3)c3ccccc23)n1 [Example 35, N-(2-(dimethylamino)ethyl)-4-((4-((4-(3-(3-isopropyl-1-(p-tolyl)-1H-pyrazol-5-yl)ureido)naphthalen-1-yl)oxy)pyrimidin-2-yl)amino)-3-methoxybenzamide] | 140 | −ve (−ve and +ve indicate that the value is below and above respectively, the no significant effect threshold, defined as 30% inhibition at 1 μg/mL at the time point indicated) | −ve (−ve and +ve indicate that the value is below and above respectively, the no significant effect threshold, defined as 30% inhibition at 1 μg/mL at the time point indicated)
2 | 234 | > 14300 | 3.4 | 6 | 1.6 | COCCNC(=O)c1cc(Nc2nccc(Oc3ccc(NC(=O)Nc4cc(C(C)C)nn4-c4ccc(C)cc4)c4ccccc34)n2)cc(OC)c1 [Example 66, 3-((4-((4-(3-(3-isopropyl-1-(p-tolyl)-1H-pyrazol-5-yl)ureido)naphthalen-1-yl)oxy)pyrimidin-2-yl)amino)-5-methoxy-N-(2-methoxyethyl)benzamide] | 2.2 | −ve (−ve and +ve indicate that the value is below and above respectively, the no significant effect threshold, defined as 30% inhibition at 1 μg/mL at the time point indicated) | −ve (−ve and +ve indicate that the value is below and above respectively, the no significant effect threshold, defined as 30% inhibition at 1 μg/mL at the time point indicated)
3 | 7 | 197 | 0.6 | 2 | 0.2 | COc1cc(Nc2nccc(Oc3ccc(NC(=O)Nc4cc(C(C)(C)C)nn4-c4ccc(C)cc4)c4ccccc34)n2)cc(C(=O)NCCN(C)C)c1 [Example 43, 3-((4-((4-(3-(3-(tert-butyl)-1-(p-tolyl)-1H-pyrazol-5-yl)ureido)naphthalen-1-yl)oxy)pyrimidin-2-yl)amino)-N-(2-(dimethylamino)ethyl)-5-methoxybenzamide] | 0.4 | −ve (−ve and +ve indicate that the value is below and above respectively, the no significant effect threshold, defined as 30% inhibition at 1 μg/mL at the time point indicated) | −ve (−ve and +ve indicate that the value is below and above respectively, the no significant effect threshold, defined as 30% inhibition at 1 μg/mL at the time point indicated)

Further lines, the compound ahead of its results:

Row | SMILES | IC50 (Syk) [nM] | IC50 (GSK3α) [nM] | IC50 [2] [nM] | IC50 (cSrc) [nM] | EC50 [3] [nM] | IC50 [1] [nM] | Cell viability at time point in d-U937 cells, 4 h (d-U937 cells) | Cell viability at time point in d-U937 cells, 24 h (d-U937 cells)
4 | COc1cc(Nc2nccc(Oc3ccc(NC(=O)Nc4cc(C(F)(F)F)nn4-c4ccc(C)cc4)c4ccccc34)n2)cc(C(=O)NCCN2CCOCC2)c1 [Example 48, 3-methoxy-N-(2-morpholinoethyl)-5-((4-((4-(3-(1-(p-tolyl)-3-(trifluoromethyl)-1H-pyrazol-5-yl)ureido)naphthalen-1-yl)oxy)pyrimidin-2-yl)amino)benzamide] | 78 | > 12800 | 20.6 | 5 | 3.5 | 32.3 | −ve (−ve and +ve indicate that the value is below and above respectively, the no significant effect threshold, defined as 30% inhibition at 1 μg/mL at the time point indicated) | −ve (−ve and +ve indicate that the value is below and above respectively, the no significant effect threshold, defined as 30% inhibition at 1 μg/mL at the time point indicated)
5 | Cc1ccc(-n2nc(C(C)(C)C)cc2NC(=O)Nc2ccc(Oc3ccnc(Nc4cccc(C(=O)N(C)C)c4)n3)c3ccccc23)cc1 [Example 26, 3-((4-((4-(3-(3-(tert-butyl)-1-(p-tolyl)-1H-pyrazol-5-yl)ureido)naphthalen-1-yl)oxy)pyrimidin-2-yl)amino)-N,N-dimethylbenzamide] | 14 | 390 | 2.3 | 6 | 0.5 | 11.1 | −ve (−ve and +ve indicate that the value is below and above respectively, the no significant effect threshold, defined as 30% inhibition at 1 μg/mL at the time point indicated) | −ve (−ve and +ve indicate that the value is below and above respectively, the no significant effect threshold, defined as 30% inhibition at 1 μg/mL at the time point indicated)
6 | COCCOc1cccc(-n2nc(C(C)(C)C)cc2NC(=O)Nc2ccc(Oc3ccnc(Nc4cc(OC)cc(C(=O)NCCN5CCOCC5)c4)n3)c3ccccc23)c1 [Example 55, 3-((4-((4-(3-(3-(tert-butyl)-1-(3-(2-methoxyethoxy)phenyl)-1H-pyrazol-5-yl)ureido)naphthalen-1-yl)oxy)pyrimidin-2-yl)amino)-5-methoxy-N-(2-morpholinoethyl)benzamide] | 4 | 281 | 2.1 | 3 | 3.3 | 5.8 | −ve (−ve and +ve indicate that the value is below and above respectively, the no significant effect threshold, defined as 30% inhibition at 1 μg/mL at the time point indicated) | −ve (−ve and +ve indicate that the value is below and above respectively, the no significant effect threshold, defined as 30% inhibition at 1 μg/mL at the time point indicated)
